Data taken from patent US20210395676A1, “CARRIER FOR CELL CULTURE COMPRISING MICROCAPSULES CONTAINING NATURAL OIL” (Korea Research Institute of Chemical Technology, priority 2018, published 2021).

Tested on: artificial myocardial structure (cardiac organoid)
Assay: Contractile force-based cardiac toxicity assessment of drug-treated artificial myocardial structure
Assay type: cell-based
Conditions: FIG. 15
From the text: Furthermore, after additionally treating an artificial myocardial structure prepared by coculturing gelatin oil capsules and cardiomyocytes with various drugs, contractile forces of the drug-treated artificial myocardial structure were checked.

| Compound | beat rates (10 nM) | contractile forces (10 nM) | beat rates (125 nM) |
| --- | --- | --- | --- |
| CC(C)NCC(O)c1ccc(O)c(O)c1 (stereo not drawn) [Isopreterenol] | accelerated | changed strongly | – |
| COc1ccc(CCN(C)CCCC(C#N)(c2ccc(OC)c(OC)c2)C(C)C)cc1OC (stereo not drawn) [verapamil] | – | – | slow down and become somewhat irregular |
